Literature values as cited in patent US4361703A, “Para-amino(or nitro)phenyl N-acetylaminothioalkanoates” (priority 1977, dated 1982).

Assays:
mice = conditions: mouse, in vivo; cited from earlier work
[1] = system: lethal and hepatotoxic effects of paracetamol overdosage; conditions: cited from earlier work
death and liver injury = conditions: cited from earlier work

| SMILES | 48 hour survival (mice) | effect of methionine combined with paracetamol [1] | effect of methionine added to oral paracetamol dose (death and liver injury) |
| --- | --- | --- | --- |
| CC(=O)N[C@@H](CS)C(=O)O [N-acetylcysteine] | significantly improved 48 hour survival in mice |  |  |
| CSCC[C@H](N)C(=O)O [methionine] |  | greatly reducing the lethal and hepatotoxic effects of paracetamol overdosage | protects against death and liver injury |
